SMILES | melting point [°C]
CCCCCCCNC(=O)Nc1ccc(N(C)C)cc1C(=O)NC1CCN(C(c2ccccc2)c2ccccc2)CC1 | 204 to 206
Cc1cc(C)c2c(c1OCC(=O)O)Cc1sc(SCCC(c3ccccc3)c3ccccc3)nc1-2 | 156 to 158
COc1ccc(Cc2cnc(NCCSCc3nc[nH]c3C)[nH]c2=O)cn1 | 197 to 198
O=C(O)c1ccc(CCCC2SCC(=O)N2CCC2(O)CCCCC2)cc1Cl (stereo unspecified) | 104 to 108
CCCc1ccnc2c(=O)[nH]c(-c3cc(S(=O)(=O)N4CCN(C)CC4)ccc3OCC)nc12 | 211 to 212
CC(=O)OCCOCCN1CCC(CNC(=O)[C@@H]2CCCN2S(=O)(=O)c2ccc(Cl)c(COc3cccc4c(-n5ccnc5)cc(C)nc34)c2Cl)CC1 | 90
CCOC(=S)C(C=P(c1ccccc1)(c1ccccc1)c1ccccc1)C(=O)C(F)(F)F (stereo unspecified) | 190
COc1ccc(-c2cc(C(F)F)nn2-c2ccc(S(N)(=O)=O)c(F)c2)cc1F | 167 to 169
COC(=O)N(N=C(C)C)C(=O)c1ccc(Br)cc1 | 103 to 104
CNCC1Cc2cc(F)cc(-c3cccc(OC)c3OC)c2O1 (stereo unspecified) | 85 to 89
CC(CCCn1c(C)nc2c(N)nc3ccccc3c21)=NOCc1ccccc1 | 146 to 148
COc1ccc(S(=O)(=O)C[N+](=O)[O-])c2ccccc12 | 109 to 110
CCCCCCC/C=C/C(=O)NCC(C)C | 42 to 45
CCCCCCOc1ccc(-c2cc(CBr)ccc2CBr)cc1 | 38.5 to 40.5
CN(C)C(=O)COc1ccc2c(c1)C[C@@H](NC[C@H](O)c1ccc(O)c(CO)c1)CC2 | 175 to 176
CCN1CCN(CCN2CC[C@H](NC(=O)c3cc(Cl)c(N)cc3OC)[C@H](OC(=O)N3CCCC3)C2)C1=O (relative stereo) | 214
Cc1ccc2nc(SCCN(C)C)[nH]c2c1 | 103
CCOC(=O)CCc1cn(CCc2ccc(OCc3nc(-c4ccccc4)oc3C)cc2)nc1-c1ccccc1 | 81 to 82
CNc1c(F)c(C)c2c(=O)c(C(=O)O)cn(-c3cc(N)c(F)cc3F)c2c1C | 247 to 253
Nc1nc2c(s1)CCN(CC1=Cc3ccccc3C1)CC2 | 134 to 138
O=C(Nc1ccc2c(c1)OCO2)N1Cc2ccccc2C1 | 165 to 166
NC(=O)N1CCC(Oc2ccc([N+](=O)[O-])cc2)(c2ccccc2)CC1 | 203 to 206
O=C(CCN1CCCC1)Nc1ccc2nc3ccc(NC(=O)CCN4CCCC4)cc3c(Cl)c2c1 | > 320
COc1c(OC)c(-c2ccccc2)n(-c2ccc(C)cc2)c1-c1ccccc1 | 192 to 193

SMILES | melting point [°C]
O=C1c2c(-c3ccccc3F)noc2CCC1CCCN1CCN(c2ccccn2)CC1 (stereo unspecified) | 94 to 96
OC1CSC(Oc2cccc(-c3ncccc3Cl)c2)C(O)C1O (stereo unspecified) | 217
Cc1nc2cc3c(cc2[nH]1)C(C)(C)CC(=O)N3 | 290 to 294
CCOC(=O)c1nn(-c2ccc(Cl)cc2Cl)c(-c2ccc(Br)cc2)c1CC | 108
CC(C)Oc1ccc(C(=O)c2ccc([N+](=O)[O-])cc2)cc1 | 136 to 137
COc1cc(N)c(Cl)cc1C(=O)NCC1CCN(CCCCCC(=O)c2ccc(C)cc2)CC1 | 130 to 131
COC(=O)C=Cc1ccc2[nH]c(C)cc2c1 | 172 to 173
Cc1cc(C)cc(COC(=O)C(Cc2c[nH]c3ccccc23)NS(=O)(=O)c2ccccc2)c1 (stereo unspecified) | 114 to 116
CC(CSC(=S)c1cccs1)C(=O)N1CCCC1C(=O)O (stereo unspecified) | 149 to 150
COc1nc(CC(=O)OC(C)(C)C)c([N+](=O)[O-])cc1C | 71 to 72.5
COc1cc(NCCCCCCN2CCN(C(=NC#N)SC)CC2)c2nccc(C)c2c1 | 97 to 99
CC(C)CCc1c(-c2ccc(S(C)(=O)=O)cc2)cnn(-c2cccc(Cl)c2)c1=O | 60 to 65
CC(C)c1ccc(-n2nc(O)c3c(=O)c4ccc(Cl)cc4[nH]c3c2=O)cc1 | 393 to 394
CC(C)ON=Cc1cc(-n2c(=O)cc(C(F)(F)F)[nH]c2=O)ccc1Cl | 191 to 193
CNC(=O)c1c(NC(=O)CBr)c(OC)c(C(=O)NC)c(NC(=O)CBr)c1OC | 308 to 310
CC(C)Oc1ccc(-n2c(C(=O)O)c(C(=O)O)c3cc(Oc4cccc(Cl)c4)ccc32)cc1 | 182 to 190
Cc1ccccc1S(=O)(=O)NC(=O)n1sc(Cl)cc1=O | 82 to 84
N#Cc1c(Br)[nH]c(Br)c1Br | 151 to 152
O=C(c1cccs1)c1cnn2c(-c3cccc(-c4nnn(Cc5ccccn5)n4)c3)ccnc12 | 184
COc1ccc2c(c1)c(CCNC(C)=O)cn2S(=O)(=O)c1ccccc1 | 140 to 141
FC(F)(F)c1ccc2[nH]nc(-c3ccccc3)c2c1 | 152
O=C(NN=Cc1c(O)c(O)cc2ccccc12)c1cc2ccccc2cc1O | > 285
Cc1nnc(-c2ccc3scc(-c4ccc(S(C)=O)cc4)c3c2)o1 (stereo unspecified) | 166 to 167
CC(C)(C)OC(=O)Nc1ccc(C#Cc2ccccc2Cl)cc1N | 120 to 122

SMILES | melting point [°C]
CC1Nc2ccccc2C(=O)N1CCN1CCC(c2noc3cc(F)ccc23)CC1 (stereo unspecified) | 164 to 165
CNC(=O)c1cc(-c2ccc(OC)cc2)nn(CC(=O)NCCO)c1=O | 240 to 241
COC(=O)c1cccc(-c2nnc(-c3ccc(-c4cccc(C)c4)cc3)o2)c1 | 147 to 148
O=C1c2c(O)ccc(O)c2-c2nn(CCCNCCO)c3ccc(NCCNCCO)c1c23 | 159 to 163
O=C(c1ccccc1)n1ccc2ccccc21 | 54 to 55
O=C(Nc1ccc(Cc2nnn[nH]2)cc1)C(F)(F)C(F)(F)C(F)(F)C(F)(F)F | 173 to 174
CCCCCCNC(=O)Nc1cccc(Oc2ccc3nc(COc4ccc(CC5SC(=O)NC5=O)cc4)n(C)c3c2)c1 (stereo unspecified) | 144 to 147
N#CCc1cc(O)cc2cc(-c3ccc(O)c(F)c3)oc12 | 242 to 244
NS(=O)(=O)c1ccc(-n2c(-c3ccccc3)csc2=S)cc1 | 235
OCC1OC(n2cnc3c(NCCCCC(c4ccccc4)c4ccccc4)ncnc32)C(O)C1O (stereo unspecified) | 78 to 82
COc1ccc(CONS(C)(=O)=O)cc1 | 114 to 116
Cc1cc(OCCO)c2ccccc2c1O | 136 to 137
COc1ccc(F)c(OC)c1-c1ccc(C[C@H](NC(=O)c2c(Cl)cccc2Cl)C(=O)O)cc1 | 228 to 229
CCCCCCCCCCCCc1ccc2cccnc2c1O | 88.5 to 90
O=c1ccc(C(F)(F)F)cn1Cc1c(Cl)cccc1Cl | 74 to 76
O=C(O)CCCc1cc2nc(Cl)ccc2n1S(=O)(=O)c1ccc(N2CCCC2)cc1 | 88
Cc1nc2cccc(OCC(C)(C)NC(=O)C3CCOCC3)c2c(N)c1C(=O)O | 170 to 173
Cc1cccc2c(=O)c3ccccc3ccc12 | 77 to 80
Nc1ncnc2c1c(-c1ccc(Oc3ccccc3)cc1)cn2C1COCC1O (stereo unspecified) | 234 to 236
N#Cc1ccc(N2C(=O)N(CCCCO)C3(CCSCC3)C2=O)cc1C(F)(F)F | 139 to 140
CCOC(=O)C(=O)c1ccc(SCC2CC2)[nH]1 | 46
Cc1ccc(-n2cccc2)c(N)c1 | 89 to 90
CCOc1cc2c(cc1OCC)C(C(C#N)SCCCO)=NCC2 (stereo unspecified) | 100 to 105
CCc1[nH]n(C2CCCC2)c2nc(C3CCNC4CCCCC43)nc(=O)c1-2 (stereo unspecified) | > 300

SMILES | melting point [°C]
CCC(C)Nc1c(-c2c(F)cc(F)cc2F)c(F)nc2ncncc12 (stereo unspecified) | 199
COc1cc(CBr)c(OC)c(CCc2cc(OC)cc(CBr)c2OC)c1 | 158 to 161
COc1ccc(-c2cc(Sc3ccc([N+](=O)[O-])cc3[N+](=O)[O-])sc2-c2ccc(OC)cc2)cc1 | 143 to 145
CC(C)[C@H]1CC[C@H](C(=O)N[C@H](Cc2ccc(OCc3ccc(C(F)(F)F)cc3)cc2)C(=O)O)CC1 | 171 to 172
COC1(c2cc(F)cc(Sc3ccc4c(c3)CCC(=S)N4C)c2)CCOCC1 | 134
COc1c2c(nn1-c1ccc(Cl)cc1F)CCCC2 | 100 to 102
O=C(Cc1cccs1)Nc1cc(N2CC(c3ccccc3)OC2=O)ccn1 (stereo unspecified) | 109 to 110
COc1ccc(C2Sc3cc(Cc4ccc(C)s4)ccc3N(CCN(C)C)C(=O)C2OC(C)=O)cc1 (stereo unspecified) | 131 to 134
CC12C=CCC1C1CCC3CC(=O)CCC3C1CC2 (stereo unspecified) | 51 to 54
Cc1nc(NC(=O)c2cccc(S(C)(=O)=O)c2)sc1C(=O)NCc1ccccc1 | 111 to 113
CC(C)(C)NC(=O)[C@@H]1CC(=O)CN1C(=O)[C@@H](O)[C@H](Cc1ccccc1)NC(=O)[C@H](CC(N)=O)NC(=O)OCc1ccccc1 | 116 to 120
C=CC(=O)c1cn(C)c2ccccc12 | 106 to 107
Cc1nnsc1NC(=O)Nc1ccc(-n2nc(C(F)(F)F)cc2C2CC2)cc1 | 124 to 128
CSc1nc(-c2ccc(N)cc2)c[nH]1 | 85 to 86
COC(=O)c1ccc2c(c1)C(=O)c1ccc(C(=O)OC)cc1C2=O | 260
C[C@H]1[C@H](O[Si](C)(C)C(C)(C)C)[C@H](O)C(S(=O)(=O)c2ccccc2)=C[C@H](C)[C@H]1O[Si](C)(C)C(C)(C)C | 81 to 83
COc1nc2cc(C(c3ccccc3)n3ccnc3)ccc2[nH]1 (stereo unspecified) | 110
Cc1cccc(N2CCN(CCc3c(C)nc4c(C)cccn4c3=O)CC2)c1 | 106
CC(C)COc1ccc(C(=O)O)cc1[N+](=O)[O-] | 184 to 186
CN1C(=O)NC(=O)C1(C)O (stereo unspecified) | 122 to 123
Cc1nc2cc(CN3CCN(C(c4ccccc4)c4ccccc4)CC3)ccc2n1CCSc1ccccc1 | 170
COc1ccc(N2CCN(c3c(C)c(C)c4c(c3C)CC(C)(CN(Cc3ccccc3)Cc3ccccc3)O4)CC2)cc1 (stereo unspecified) | 168 to 170
CCn1nc2c(N)nc3ccccc3c2c1CO | 255 to 256
CCCC(=O)OC(C)OC(=O)Nc1ccc(Cl)cc1 (stereo unspecified) | 52 to 54

— a melting point compilation (Tetko et al.; mined from patent text by program, amines drawn as free bases though some values may be those of a salt)
